Target: Rho-associated protein kinase 2 (Homo sapiens, UniProt O75116)
Assay: Z-lyte assay: Compounds activities were measured by Z'-lyte kinase kit (ThermoFisher Scientific). The percent inhibition rate was calculated by normalizing the kinase activity value obtained with 1 μM compound treatment against DMSO control value. IC50s were calculated using the GraphPad Prism software with kinase activities data that were collected from 9 points serial dilution of compounds treatment.

Sequence of Rho-associated protein kinase 2 (O75116 whole entry): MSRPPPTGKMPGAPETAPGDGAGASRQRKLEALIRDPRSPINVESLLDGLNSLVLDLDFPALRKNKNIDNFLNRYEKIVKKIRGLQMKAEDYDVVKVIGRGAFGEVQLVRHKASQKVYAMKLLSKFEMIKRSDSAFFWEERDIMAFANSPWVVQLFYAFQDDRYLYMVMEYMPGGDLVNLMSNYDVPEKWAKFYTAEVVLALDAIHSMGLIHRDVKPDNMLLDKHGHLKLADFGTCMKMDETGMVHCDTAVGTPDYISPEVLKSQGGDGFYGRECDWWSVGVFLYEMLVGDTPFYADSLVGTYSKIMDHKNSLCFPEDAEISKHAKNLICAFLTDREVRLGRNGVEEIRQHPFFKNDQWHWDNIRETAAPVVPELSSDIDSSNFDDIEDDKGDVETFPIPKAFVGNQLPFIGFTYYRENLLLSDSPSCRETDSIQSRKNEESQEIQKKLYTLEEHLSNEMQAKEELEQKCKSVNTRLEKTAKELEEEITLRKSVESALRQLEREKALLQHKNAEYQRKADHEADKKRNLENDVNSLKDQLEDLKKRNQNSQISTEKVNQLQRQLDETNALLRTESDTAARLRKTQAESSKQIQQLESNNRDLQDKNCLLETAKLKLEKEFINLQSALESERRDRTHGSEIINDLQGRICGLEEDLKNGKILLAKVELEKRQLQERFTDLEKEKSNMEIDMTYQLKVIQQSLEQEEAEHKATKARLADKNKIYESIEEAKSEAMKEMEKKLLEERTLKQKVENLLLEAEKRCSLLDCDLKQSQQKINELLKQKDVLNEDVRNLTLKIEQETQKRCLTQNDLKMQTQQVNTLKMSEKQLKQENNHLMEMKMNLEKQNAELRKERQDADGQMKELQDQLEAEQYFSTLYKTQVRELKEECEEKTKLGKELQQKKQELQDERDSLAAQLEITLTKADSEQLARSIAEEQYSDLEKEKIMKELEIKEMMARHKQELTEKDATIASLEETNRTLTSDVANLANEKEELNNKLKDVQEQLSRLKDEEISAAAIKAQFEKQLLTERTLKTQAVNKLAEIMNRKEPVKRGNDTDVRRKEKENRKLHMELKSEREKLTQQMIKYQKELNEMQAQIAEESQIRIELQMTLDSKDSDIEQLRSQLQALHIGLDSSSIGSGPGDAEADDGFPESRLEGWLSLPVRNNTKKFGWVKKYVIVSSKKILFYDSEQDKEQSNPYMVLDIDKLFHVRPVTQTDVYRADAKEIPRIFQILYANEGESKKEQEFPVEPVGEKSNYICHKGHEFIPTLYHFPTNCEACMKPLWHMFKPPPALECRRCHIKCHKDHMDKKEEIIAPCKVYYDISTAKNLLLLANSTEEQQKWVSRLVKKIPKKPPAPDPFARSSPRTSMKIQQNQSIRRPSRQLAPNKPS

IC50: 21 nM
Compound: CNC(C(=O)Nc1ccc(-c2cn[nH]c2)cc1)c1ccc(OC)c(F)c1 (stereo unspecified)

From ChEMBL document CHEMBL5729401, “Inhibitors of Rho associated coiled-coil containing protein kinase” (2022)
